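1) Cells in 96-well plates. 2) Compound, 48 h, 5 concentrations. 3) Linear interpolation between surrounding doses. 4) Unreached endpoint = highest concentration. Here, GI50 denotes the concentration required for 50% inhibition of growth.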 Active and inactive are the calls of the source. No stated cut-off is given here; in the data, active = GI50 up to about 1.1 µM and inactive = higher. *1 amine or outer side, *2 acyl side, *3 side chain or, on linkers, in order; H or OH if unused. Where a SMILES comes first, the peptide text is derived from it. The star is where a group is joined. γGlu = O=C(O)[CH](CCC(=O)[*:2])N[*:1]; NHOH = ON*
What was measured:
Assay in all cases: inhibition of tumour cell growth, NCI panel, 48 h
ACHN = system: ACHN
COLO 205 = system: COLO 205
DU-145 = system: DU-145
EKVX = system: EKVX
HCT-116 = system: HCT-116
HL-60 = system: HL-60
MCF7 = system: MCF7
MOLT-4 = system: MOLT-4
NCI-H23 = system: NCI-H23
NCI/ADR-RES = system: NCI/ADR-RES
SNB-19 = system: SNB-19
SR = system: SR
T47D = system: T47D
U-251 = system: U-251
UO-31 = system: UO-31
CCRF-CEM = system: CCRF-CEM
OVCAR-3 = system: OVCAR-3
SF-539 = system: SF-539
SNB-75 = system: SNB-75

SMILES | GI50 (ACHN) | GI50 (COLO 205) | GI50 (DU-145) | GI50 (EKVX) | GI50 (HCT-116) | GI50 (HL-60) | GI50 (MCF7) | GI50 (MOLT-4) | GI50 (NCI-H23) | GI50 (NCI/ADR-RES) | GI50 (SNB-19) | GI50 (SR) | GI50 (T47D) | GI50 (U-251) | GI50 (UO-31) | GI50 (CCRF-CEM) | GI50 (OVCAR-3) | GI50 (SF-539) | GI50 (SNB-75)
N#CC12C(=O)N3C(=NC(c4ccco4)NC3c3ccco3)C1(C#N)C(c1ccco1)NC1=C2CCCC1 (centres undefined) | > 100 µM (inactive) | > 100 µM (inactive) | > 100 µM (inactive) | > 100 µM (inactive) | > 100 µM (inactive) | > 100 µM (inactive) | > 100 µM (inactive) | > 100 µM (inactive) | > 100 µM (inactive) | > 100 µM (inactive) | > 100 µM (inactive) | > 100 µM (inactive) | > 100 µM (inactive) | > 100 µM (inactive) | > 100 µM (inactive) |  |  |  | 
Cc1nnc(N)s/c1=N/O | > 100 µM (inactive) | > 100 µM (inactive) | > 100 µM (inactive) | > 100 µM (inactive) | > 100 µM (inactive) | > 100 µM (inactive) | > 100 µM (inactive) | > 100 µM (inactive) | > 100 µM (inactive) | > 100 µM (inactive) | > 100 µM (inactive) |  | > 100 µM (inactive) | > 100 µM (inactive) | > 100 µM (inactive) | > 100 µM (inactive) | > 100 µM (inactive) | > 100 µM (inactive) | > 100 µM (inactive)
C=CC[C@@]1(C(=O)OC)[C@H](Sc2ccccc2)C1(C)C | > 100 µM (inactive) | 33.3 µM (inactive) | 67.9 µM (inactive) | 33.3 µM (inactive) | 23.6 µM (inactive) | 16.2 µM (inactive) | 25.9 µM (inactive) | 14.4 µM (inactive) | 23.2 µM (inactive) | 44.9 µM (inactive) | > 100 µM (inactive) |  | > 100 µM (inactive) | 49.2 µM (inactive) | 83 µM (inactive) | 28.8 µM (inactive) | 44.3 µM (inactive) | 35.3 µM (inactive) | 21.8 µM (inactive)
O=C1OCC2OC(=O)c3cc(O)c(O)c(O)c3-c3c(O)c(O)c(O)c4c3C(=O)OC(C2OC(=O)c2cc(O)c(O)c(O)c2-c2c1cc(O)c(O)c2O)C1OC(=O)c2c-4c(O)c(O)c(O)c2[C@@H]1C(O)C(O)C(O)C(O)CO (some centres undefined) | 16.5 µM (inactive) | 15.7 µM (inactive) | 20.2 µM (inactive) | 19.8 µM (inactive) | 16.2 µM (inactive) | 17 µM (inactive) | 3.82 µM (inactive) | 20.4 µM (inactive) | 19.2 µM (inactive) | 22.2 µM (inactive) | 46 µM (inactive) | 22.5 µM (inactive) | 19.1 µM (inactive) | 20.4 µM (inactive) | 17.8 µM (inactive) | 4.75 µM (inactive) | 28.2 µM (inactive) |  | < 0.01 µM (active)
COc1ccc(C2C3CCc4ccccc4C3=NN2S(=O)(=O)c2ccc(Cl)cc2)cc1 (centres undefined) | 15.4 µM (inactive) | 6.01 µM (inactive) | 30 µM (inactive) | 35.7 µM (inactive) | 18.3 µM (inactive) | 17.9 µM (inactive) | 4.13 µM (inactive) | 13.1 µM (inactive) | 33.3 µM (inactive) | 5 µM (inactive) | 39.2 µM (inactive) | 3.01 µM (inactive) | 10.7 µM (inactive) | 17.6 µM (inactive) | 22.6 µM (inactive) | 17.9 µM (inactive) | 16.6 µM (inactive) | 18.3 µM (inactive) | 
COc1ccc2c(C)cc(C)nc2n1 | > 100 µM (inactive) | > 100 µM (inactive) | > 100 µM (inactive) | > 100 µM (inactive) | > 100 µM (inactive) | > 100 µM (inactive) | > 100 µM (inactive) | > 100 µM (inactive) | > 100 µM (inactive) | > 100 µM (inactive) | > 100 µM (inactive) | > 100 µM (inactive) | > 100 µM (inactive) | > 100 µM (inactive) | > 100 µM (inactive) | > 100 µM (inactive) | > 100 µM (inactive) |  | > 100 µM (inactive)
O=C1c2ccccc2C(=O)c2nn(N=P(CP(=Nn3nc4c(n3)C(=O)c3ccccc3C4=O)(c3ccccc3)c3ccccc3)(c3ccccc3)c3ccccc3)nc21 | > 100 µM (inactive) | > 100 µM (inactive) | > 100 µM (inactive) | > 100 µM (inactive) | > 100 µM (inactive) | 36.3 µM (inactive) | > 100 µM (inactive) | > 100 µM (inactive) | > 100 µM (inactive) | > 100 µM (inactive) | > 100 µM (inactive) | > 100 µM (inactive) | > 100 µM (inactive) | > 100 µM (inactive) |  | > 100 µM (inactive) | > 100 µM (inactive) | > 100 µM (inactive) | 
CNc1ccc2nc(-c3ccc(OC(=O)N(C)C)cc3)cn2c1 | 19.2 µM (inactive) | 17.1 µM (inactive) | 24.3 µM (inactive) | 19.3 µM (inactive) | 18.3 µM (inactive) | 22.5 µM (inactive) | 20.7 µM (inactive) | 17.8 µM (inactive) | 21.2 µM (inactive) | 23.3 µM (inactive) | 16.1 µM (inactive) | 19.1 µM (inactive) | 22.2 µM (inactive) | 15.5 µM (inactive) | 21.1 µM (inactive) | 12.6 µM (inactive) | 40.7 µM (inactive) |  | 
CCOC(=O)c1cnc(N(C)C)nc1SC(=N)N | > 100 µM (inactive) | > 100 µM (inactive) | > 100 µM (inactive) | > 100 µM (inactive) | > 100 µM (inactive) |  | > 100 µM (inactive) | 49.2 µM (inactive) | > 100 µM (inactive) | > 100 µM (inactive) | > 100 µM (inactive) | 35.6 µM (inactive) | > 100 µM (inactive) | > 100 µM (inactive) |  |  | > 100 µM (inactive) | > 100 µM (inactive) | > 100 µM (inactive)
NC(CCC(=O)NC(CCC(=O)NO)C(=O)NCC(=O)O)C(=O)O (centres undefined) (γGlu-Glu(NHOH)-Gly-OH; configuration not given here) | > 100 µM (inactive) | > 100 µM (inactive) | > 100 µM (inactive) | > 100 µM (inactive) | > 100 µM (inactive) | > 100 µM (inactive) | > 100 µM (inactive) | > 100 µM (inactive) | > 100 µM (inactive) | > 100 µM (inactive) | > 100 µM (inactive) |  | > 100 µM (inactive) | > 100 µM (inactive) | > 100 µM (inactive) | > 100 µM (inactive) | > 100 µM (inactive) | > 100 µM (inactive) | > 100 µM (inactive)
CCOC(=O)CN1C(=O)c2c(NC(=O)C(=O)O)cccc2S1(=O)=O | > 100 µM (inactive) | > 100 µM (inactive) | > 100 µM (inactive) | > 100 µM (inactive) | > 100 µM (inactive) | > 100 µM (inactive) | > 100 µM (inactive) | > 100 µM (inactive) | > 100 µM (inactive) | > 100 µM (inactive) | > 100 µM (inactive) | > 100 µM (inactive) | > 100 µM (inactive) | > 100 µM (inactive) | > 100 µM (inactive) | > 100 µM (inactive) |  |  | 
NCC(O)CSP(=O)(O)O (centres undefined) | > 100 µM (inactive) | > 100 µM (inactive) | > 100 µM (inactive) | > 100 µM (inactive) | > 100 µM (inactive) | > 100 µM (inactive) | > 100 µM (inactive) | > 100 µM (inactive) | > 100 µM (inactive) | > 100 µM (inactive) | > 100 µM (inactive) | > 100 µM (inactive) | > 100 µM (inactive) | > 100 µM (inactive) | > 100 µM (inactive) | > 100 µM (inactive) | > 100 µM (inactive) |  | > 100 µM (inactive)
CCN(CC)CCNc1ccc2nnn3c4ccc(OCCN(CC)CC)cc4c(=O)c1c23 | 65.2 µM (inactive) | 30.6 µM (inactive) | 42.3 µM (inactive) | 71 µM (inactive) | 30 µM (inactive) |  | 33.6 µM (inactive) | 6.73 µM (inactive) | 88.5 µM (inactive) | 57.7 µM (inactive) | 48.5 µM (inactive) | 19.4 µM (inactive) | > 100 µM (inactive) | 60.3 µM (inactive) | 89.9 µM (inactive) | 16.4 µM (inactive) |  | 96.8 µM (inactive) | 
COc1ccc(C(=O)CCN(C)C)c2ccccc12 | 18.3 µM (inactive) | 18.6 µM (inactive) | 28.2 µM (inactive) | 24.7 µM (inactive) | 21.8 µM (inactive) | 15.6 µM (inactive) | 4.63 µM (inactive) | 17.9 µM (inactive) | 20.8 µM (inactive) | 35.9 µM (inactive) | > 93.5 µM (inactive) |  | 11.3 µM (inactive) | 18.2 µM (inactive) | 21.5 µM (inactive) | 2.79 µM (inactive) | 16.3 µM (inactive) | 14.9 µM (inactive) | 23 µM (inactive)
COC(=O)[C@]1(C)CCC[C@@]2(C)[C@@H]3C[C@@H]4[C@H]5C[C@@]3(CC[C@@H]21)C[C@@]45C | 15.8 µM (inactive) | 20.5 µM (inactive) | 25.8 µM (inactive) | 15.6 µM (inactive) | 20 µM (inactive) | 2.08 µM (inactive) | 14.9 µM (inactive) | 14.5 µM (inactive) | 14.6 µM (inactive) | 15.7 µM (inactive) | 13.9 µM (inactive) |  | 23.2 µM (inactive) | 24 µM (inactive) | 16 µM (inactive) | 18 µM (inactive) | 18.2 µM (inactive) | 22.1 µM (inactive) | 17.7 µM (inactive)
